# In patent US6455540B1, “Methods of use of quinolone compounds against anaerobic pathogenic bacteria” (priority 1999, dated 2002):
# Key:
# Assay in all cases: Agar dilution MIC
# [1] = tested on: Actinomyces odontolyticus; format: cell-based; conditions: 10 isolates
# Actinomyces israelii = format: cell-based; conditions: 6 isolates
# [2] = tested on: Anaerobiospirillum thomasii; format: cell-based; conditions: 13 isolates
# [3] = tested on: Anaerobiospirillum succiniciproducens; format: cell-based; conditions: 3 isolates
# Bacteroides gracilis = format: cell-based, Bacteroides gracilis (Campylobacter gracilis); conditions: 11 isolates
# Bacteroides tectum = format: cell-based; conditions: 22 isolates
# Bilophila wadsworthia = format: cell-based; conditions: 16 isolates; agar supplemented with pyruvate
# [4] = tested on: Clostridium clostridioforme; format: cell-based; conditions: 11 isolates
# Clostridium dfficile = format: cell-based, Clostridium difficile; conditions: 14 isolates
# Clostridium inocuum = format: cell-based, Clostridium innocuum; conditions: 11 isolates
# Clostridium ramosum = format: cell-based; conditions: 10 isolates
# [5] = tested on: Fusobacterium spp group 1; format: cell-based; conditions: 19 isolates
# [6] = tested on: Fusobacterium spp. group 2; format: cell-based, Fusobacterium mortiferum, necrogenes, ulcerans; conditions: 12 isolates
# Fusobacterium russii = format: cell-based
# Fusobacterium varium = format: cell-based; conditions: 17 isolates
# [7] = tested on: Peptostreptococcus asaccharolyticus; format: cell-based; conditions: 11 isolates
# [8] = tested on: Peptostreptococcus magnus; format: cell-based; conditions: 13 isolates
# [9] = tested on: Peptostreptococcus micros; format: cell-based; conditions: 12 isolates
# [10] = tested on: Peptostreptococcus prevotii; format: cell-based; conditions: 9 isolates
# [11] = tested on: Porphyromonas asaccharolyticus; format: cell-based, Porphyromonas asaccharolytica; conditions: 11 isolates
# Porphyromonas canoris = format: cell-based; conditions: 10 isolates
# Porphyromonas gingivalis = format: cell-based; conditions: 13 isolates
# Prevotella bivia = format: cell-based; conditions: 21 isolates
# [12] = tested on: Prevotella buccae-oris group; format: cell-based; conditions: 22 isolates
# [13] = tested on: Prevotella heparinolytica; format: cell-based; conditions: 16 isolates
# Prevotella intermedia = format: cell-based; conditions: 11 isolates
# [14] = tested on: Prevotella melaninogenica; format: cell-based; conditions: 12 isolates
# [15] = tested on: Prevotella denticola/loeschii group; format: cell-based; conditions: 6 isolates
# Veillonella spp. = format: cell-based; conditions: 24 isolates
# Bacteroides ureolyticus = format: cell-based; conditions: 17 isolates
# Porphyromonas macaccae = format: cell-based; conditions: 13 isolates
molecule,measurement,setting,value
Amoxicillin clavulanate,Minimal Inhibitory Concentration 90% (MIC90),[1],0.25 µg/mL
same,Minimal Inhibitory Concentration Range,[1],0.06 to 0.125 µg/mL
same,Minimal Inhibitory Concentration 50% (MIC50),Actinomyces israelii,0.03 µg/mL
same,Minimal Inhibitory Concentration Range,Actinomyces israelii,0.03 to 1 µg/mL
same,Minimal Inhibitory Concentration 90% (MIC90),[2],0.25 µg/mL
same,Minimal Inhibitory Concentration Range,[2],0.125 to 0.25 µg/mL
same,Minimal Inhibitory Concentration 50% (MIC50),[3],0.25 µg/mL
same,Minimal Inhibitory Concentration Range,[3],0.25 to 0.5 µg/mL
same,Minimal Inhibitory Concentration 50% (MIC50),Bacteroides gracilis,0.5 µg/mL
same,Minimal Inhibitory Concentration 90% (MIC90),Bacteroides gracilis,2 µg/mL
same,Minimal Inhibitory Concentration 50% (MIC50),Bacteroides tectum,0.06 µg/mL
same,Minimal Inhibitory Concentration 90% (MIC90),Bacteroides tectum,0.5 µg/mL
same,Minimal Inhibitory Concentration Range,Bacteroides tectum,0.03 to 0.5 µg/mL
same,Minimal Inhibitory Concentration 50% (MIC50),Bilophila wadsworthia,2 µg/mL
same,Minimal Inhibitory Concentration 90% (MIC90),Bilophila wadsworthia,4 µg/mL
same,Minimal Inhibitory Concentration Range,Bilophila wadsworthia,1 to 4 µg/mL
same,Minimal Inhibitory Concentration 50% (MIC50),[4],0.5 µg/mL
same,Minimal Inhibitory Concentration 90% (MIC90),[4],1 µg/mL
same,Minimal Inhibitory Concentration Range,[4],0.5 to 8 µg/mL
same,Minimal Inhibitory Concentration 50% (MIC50),Clostridium dfficile,1 µg/mL
same,Minimal Inhibitory Concentration 90% (MIC90),Clostridium dfficile,1 µg/mL
same,Minimal Inhibitory Concentration Range,Clostridium dfficile,0.5 to 1 µg/mL
same,Minimal Inhibitory Concentration 50% (MIC50),Clostridium inocuum,0.5 µg/mL
same,Minimal Inhibitory Concentration 90% (MIC90),Clostridium inocuum,0.5 µg/mL
same,Minimal Inhibitory Concentration Range,Clostridium inocuum,0.5 to 2 µg/mL
same,Minimal Inhibitory Concentration 50% (MIC50),Clostridium ramosum,0.06 µg/mL
same,Minimal Inhibitory Concentration 90% (MIC90),Clostridium ramosum,0.25 µg/mL
same,Minimal Inhibitory Concentration Range,Clostridium ramosum,0.06 to 0.25 µg/mL
same,Minimal Inhibitory Concentration 50% (MIC50),[5],0.06 µg/mL
same,Minimal Inhibitory Concentration 50% (MIC50),[6],1 µg/mL
same,Minimal Inhibitory Concentration 90% (MIC90),[6],2 µg/mL
same,Minimal Inhibitory Concentration 50% (MIC50),Fusobacterium russii,0.06 µg/mL
same,Minimal Inhibitory Concentration 50% (MIC50),Fusobacterium varium,2 µg/mL
same,Minimal Inhibitory Concentration 90% (MIC90),Fusobacterium varium,4 µg/mL
same,Minimal Inhibitory Concentration Range,Fusobacterium varium,0.125 to 4 µg/mL
same,Minimal Inhibitory Concentration 50% (MIC50),[7],0.03 µg/mL
same,Minimal Inhibitory Concentration Range,[7],0.03 to 1 µg/mL
same,Minimal Inhibitory Concentration 50% (MIC50),[8],0.03 µg/mL
same,Minimal Inhibitory Concentration Range,[8],0.03 to 1 µg/mL
same,Minimal Inhibitory Concentration 50% (MIC50),[9],0.03 µg/mL
same,Minimal Inhibitory Concentration Range,[9],0.03 to 0.125 µg/mL
same,Minimal Inhibitory Concentration 50% (MIC50),[10],0.03 µg/mL
same,Minimal Inhibitory Concentration 90% (MIC90),[11],0.03 µg/mL
same,Minimal Inhibitory Concentration 90% (MIC90),Porphyromonas canoris,0.03 µg/mL
same,Minimal Inhibitory Concentration 90% (MIC90),Porphyromonas gingivalis,0.06 µg/mL
same,Minimal Inhibitory Concentration 50% (MIC50),Prevotella bivia,0.5 µg/mL
same,Minimal Inhibitory Concentration 90% (MIC90),Prevotella bivia,4 µg/mL
same,Minimal Inhibitory Concentration Range,Prevotella bivia,0.06 to 4 µg/mL
same,Minimal Inhibitory Concentration 50% (MIC50),[12],0.25 µg/mL
same,Minimal Inhibitory Concentration 90% (MIC90),[12],1 µg/mL
same,Minimal Inhibitory Concentration Range,[12],0.125 to 2 µg/mL
same,Minimal Inhibitory Concentration 90% (MIC90),[13],0.25 µg/mL
same,Minimal Inhibitory Concentration Range,[13],0.06 to 0.25 µg/mL
same,Minimal Inhibitory Concentration 50% (MIC50),Prevotella intermedia,0.03 µg/mL
same,Minimal Inhibitory Concentration Range,Prevotella intermedia,0.03 to 0.5 µg/mL
same,Minimal Inhibitory Concentration 50% (MIC50),[14],2 µg/mL
same,Minimal Inhibitory Concentration 90% (MIC90),[14],4 µg/mL
same,Minimal Inhibitory Concentration Range,[14],0.03 to 16 µg/mL
same,Minimal Inhibitory Concentration 50% (MIC50),[15],0.06 µg/mL
same,Minimal Inhibitory Concentration Range,[15],0.03 to 0.5 µg/mL
same,Minimal Inhibitory Concentration 50% (MIC50),Veillonella spp.,0.5 µg/mL
same,Minimal Inhibitory Concentration 90% (MIC90),Veillonella spp.,2 µg/mL
CC1(C)S[C@@H]2[C@H](NC(=O)Cc3ccccc3)C(=O)N2[C@H]1C(=O)O [Penicillin G],Minimal Inhibitory Concentration 50% (MIC50),[1],0.125 µg/mL
same,Minimal Inhibitory Concentration 90% (MIC90),[1],.0125 µg/mL
same,Minimal Inhibitory Concentration Range,[1],0.125 to 0.25 µg/mL
same,Minimal Inhibitory Concentration 50% (MIC50),Actinomyces israelii,0.03 µg/mL
same,Minimal Inhibitory Concentration 50% (MIC50),[2],0.06 µg/mL
same,Minimal Inhibitory Concentration 90% (MIC90),[2],0.125 µg/mL
same,Minimal Inhibitory Concentration Range,[2],0.06 to 0.125 µg/mL
same,Minimal Inhibitory Concentration 50% (MIC50),[3],0.5 µg/mL
same,Minimal Inhibitory Concentration Range,[3],0.5 to 1 µg/mL
same,Minimal Inhibitory Concentration 50% (MIC50),Bacteroides gracilis,0.125 µg/mL
same,Minimal Inhibitory Concentration 90% (MIC90),Bacteroides gracilis,4 µg/mL
same,Minimal Inhibitory Concentration 50% (MIC50),Bacteroides tectum,0.03 µg/mL
same,Minimal Inhibitory Concentration 90% (MIC90),Bacteroides tectum,16 µg/mL
same,Minimal Inhibitory Concentration 90% (MIC90),Bacteroides ureolyticus,0.25 µg/mL
same,Minimal Inhibitory Concentration 50% (MIC50),Bilophila wadsworthia,4 µg/mL
same,Minimal Inhibitory Concentration 90% (MIC90),Bilophila wadsworthia,8 µg/mL
same,Minimal Inhibitory Concentration Range,Bilophila wadsworthia,2 to 16 µg/mL
same,Minimal Inhibitory Concentration 50% (MIC50),[4],1 µg/mL
same,Minimal Inhibitory Concentration 90% (MIC90),[4],16 µg/mL
same,Minimal Inhibitory Concentration 50% (MIC50),Clostridium dfficile,2 µg/mL
same,Minimal Inhibitory Concentration 90% (MIC90),Clostridium dfficile,4 µg/mL
same,Minimal Inhibitory Concentration Range,Clostridium dfficile,1 to 4 µg/mL
same,Minimal Inhibitory Concentration 50% (MIC50),Clostridium inocuum,0.5 µg/mL
same,Minimal Inhibitory Concentration 90% (MIC90),Clostridium inocuum,0.5 µg/mL
same,Minimal Inhibitory Concentration 50% (MIC50),Clostridium ramosum,0.06 µg/mL
same,Minimal Inhibitory Concentration 90% (MIC90),Clostridium ramosum,1 µg/mL
same,Minimal Inhibitory Concentration Range,Clostridium ramosum,0.06 to 1 µg/mL
same,Minimal Inhibitory Concentration 90% (MIC90),[5],2 µg/mL
same,Minimal Inhibitory Concentration 50% (MIC50),[6],0.25 µg/mL
same,Minimal Inhibitory Concentration 90% (MIC90),[6],0.5 µg/mL
same,Minimal Inhibitory Concentration 50% (MIC50),Fusobacterium russii,0.03 µg/mL
same,Minimal Inhibitory Concentration 90% (MIC90),Fusobacterium russii,0.06 µg/mL
same,Minimal Inhibitory Concentration 50% (MIC50),Fusobacterium varium,0.5 µg/mL
same,Minimal Inhibitory Concentration 90% (MIC90),Fusobacterium varium,8 µg/mL
same,Minimal Inhibitory Concentration 50% (MIC50),[7],0.03 µg/mL
same,Minimal Inhibitory Concentration 90% (MIC90),[7],0.25 µg/mL
same,Minimal Inhibitory Concentration 50% (MIC50),[8],0.03 µg/mL
same,Minimal Inhibitory Concentration 90% (MIC90),[8],0.25 µg/mL
same,Minimal Inhibitory Concentration 90% (MIC90),[9],0.03 µg/mL
same,Minimal Inhibitory Concentration 50% (MIC50),[10],0.03 µg/mL
same,Minimal Inhibitory Concentration Range,[10],0.03 to 0.06 µg/mL
same,Minimal Inhibitory Concentration 90% (MIC90),Porphyromonas gingivalis,0.03 µg/mL
same,Minimal Inhibitory Concentration 50% (MIC50),Porphyromonas macaccae,0.5 µg/mL
same,Minimal Inhibitory Concentration 90% (MIC90),Porphyromonas macaccae,0.5 µg/mL
same,Minimal Inhibitory Concentration 50% (MIC50),Prevotella bivia,16 µg/mL
same,Minimal Inhibitory Concentration 90% (MIC90),Prevotella bivia,32 µg/mL
same,Minimal Inhibitory Concentration Range,Prevotella bivia,0.25 to 32 µg/mL
same,Minimal Inhibitory Concentration 50% (MIC50),[12],8 µg/mL
same,Minimal Inhibitory Concentration 90% (MIC90),[12],>32 µg/mL
same,Minimal Inhibitory Concentration 50% (MIC50),[13],0.06 µg/mL
same,Minimal Inhibitory Concentration 90% (MIC90),[13],0.125 µg/mL
same,Minimal Inhibitory Concentration Range,[13],0.06 to 0.25 µg/mL
same,Minimal Inhibitory Concentration 50% (MIC50),Prevotella intermedia,0.03 µg/mL
same,Minimal Inhibitory Concentration 90% (MIC90),Prevotella intermedia,4 µg/mL
same,Minimal Inhibitory Concentration 50% (MIC50),[14],0.25 µg/mL
same,Minimal Inhibitory Concentration 90% (MIC90),[14],2 µg/mL
same,Minimal Inhibitory Concentration 50% (MIC50),[15],4 µg/mL
same,Minimal Inhibitory Concentration 50% (MIC50),Veillonella spp.,1 µg/mL
same,Minimal Inhibitory Concentration 90% (MIC90),Veillonella spp.,4 µg/mL
